From patent publication US11110168B2, “Nanoparticles, controlled-release dosage forms, and methods for delivering an immunotherapeutic agent” (NORTH CAROLINA STATE UNIVERSITY, priority 2016, dated 2021)
One block for each molecule: values may come before it.

Tests used:
[1] = system: restriction enzyme HhaI; experiment: Digestion of DNCs by restriction enzyme HhaI, gel electrophoresis; type: biochemical; details: treated with HhaI
Experimental: Release studies were performed at 37° C. with constant agitation in PBS+10% fetal ovine serum. PBS, MMP-9 (500 ng/mL, Sigma) or Lipase (10 000 U, Sigma) were added to samples to study the DNA and antibody release. The DNA disintegration was analyzed by agarose gel electrophoresis using 1% (w/v) agarose gel and the antibody release was determined by IgG total ELISA kit (eBioscience).
Two different control DNCs (cDNC) with a non-specific sequence were synthesized (Table 1) to verify the design.
As shown in agarose gels (FIG. 7), without HhaI treatment, these cDNCs cannot migrate in the gel as DNCs.

[2] = In vivo retention and biodistribution after MN administration in mice bearing B16F10 melanoma; set-up: species or system mouse; details: for Cy5.5 signal around the melanoma site (retention): MN administration, imaging day 1, day 3, day 5
Experimental: HA-NPs formulation with conjugated 1-MT and encapsulated aPD1 can improve their physicochemical properties. Therefore, the in vivo kinetics of free aPD1/1-MT and NPs following MN administration were evaluated in the mice model bearing B16F10 melanoma. The drug retention capability was tested at the tumor site after the MN administration. In vivo […] imaging was conducted at day 1, day 3 and day 5 post injection of the MN loaded with aPD1 and Cy5.5-1-MT-HA or free Cy5.5-1-MT. […] A similar pattern was observed compared to the biodistribution at the tumor site and other organs in the control group. […] The sustained high concentrations of the drugs within tumor regions as well as in peripheral circulation would enhance the immune system capability to treat not only primary tumor but also metastatic tumors in the body.
For the fluorescent NPs, Cyanine5.5 NHS ester (Lumiprobe, Cy5.5) was covalently coupled to the primary amines of the aPD1 and 1-MT. The Cy5.5 was dissolved in anhydrous DMSO immediately before use, at a concentration of 10 mg/ml. Cy5.5 and 1-MT reacted at optimal ratio of 5:1. For the conjugation with aPD1, 40 μg Cy5.5 per mg of antibody was mixed immediately. The tube was wrapped in foil and incubated at room temperature for 1 hour. The unreacted Cy5.5 was removed and the aPD1 was exchanged by gel filtration using Sephadex G-25M.

Molecule: cDNC (with cutting sites, without CpG): control DNA nano-cocoon with HhaI cutting sites, without CpG (GTATTATTTCGAAATAATTTGTATTATT; 5' phosphate, chemistry not fully specified; the letters are possibly those of the target site)
cleavage by HhaI (gel electrophoresis) [1]: readily cut into smaller homogeneous fragments

Molecule: Cn1cc(CC(N)C(=O)O)c2ccccc21 (racemic) [1-MT, 1-methyl-DL-tryptophan]
biodistribution in the tumor and the major organs ([2]; Cy5.5-labeled 1-MT after MN administration): highest accumulations in the tumor followed by the lung and liver | Cy5.5 signal around the melanoma site (retention) [2]: quickly cleaved from the patch and eliminated by the body within one day

Cy5.5 signal around the melanoma site (retention) [2]: little signal could be detected
Molecule: 1-methyl-DL-tryptophan [1-MT]

B1: cDNCs (with CpG, without cutting sites): control DNA nano-cocoon with CpG, without HhaI cutting sites (nucleic acid)
chain: ATATGTCGTCGTTCGAACGACGTTATATAACGTCGTTCGAACGACGTTATATGTCGTCGTTCGAACGACGTT
modifications: listed as DNA, chemistry not fully specified; the letters are possibly those of the target site
cleavage by HhaI (gel electrophoresis) [1]: resistant to cleavage by HhaI
